{"source": "paper PMC8400257", "about": "“2-Phenoxy-3-Trichloromethylquinoxalines Are Antiplasmodial Derivatives with Activity against the Apicoplast of Plasmodium falciparum” (Pharmaceuticals, 2021)", "key": {"[1]": {"system": "K1 chloroquine and pyrimethamine-resistant P. falciparum strain", "assay": "In vitro antiplasmodial evaluation (SYBR Green I)", "format": "cell-based, Plasmodium falciparum", "protocol": "For all molecules, the selectivity index was calculated as following SI = CC50/EC50.\nIt was maintained in continuous culture, as described previously by Trager and Jensen. Cultures were maintained in fresh A+ human erythrocytes at 2.5% hematocrit in complete medium (RPMI 1640 with 25 mM HEPES, 25 mM NaHCO3, 10% of A+ human serum) at 37 °C under reduced O2 atmosphere (gas mixture 10% O2, 5% CO2, and 85% N2). Parasitemia was maintained daily between 1 and 3%. The P. falciparum drug susceptibility test was carried out by comparing quantities of DNA in treated and control cultures of parasite in human erythrocytes according to an SYBR Green I fluorescence-based method using a 96-well fluorescence plate reader. Compounds, previously dissolved in DMSO (final concentration less than 0.5% v/v), were incubated in a total assay volume of 200 μL (RPMI, 2% hematocrit and 0.4% parasitemia) for 72 h in a humidified atmosphere (10% O2 and 5% CO2) at 37 °C, in 96-well flat bottom plates. Duplicate assays were performed for each sample. After incubation, plates were frozen at […] for 24 h. Then, the frozen plates were thawed for 1 h at 37 °C. Fifteen µL of each sample were transferred to 96-well flat bottom non-sterile black plates (Greiner Bio-one, Kremsmünster, Austria), already containing 15 µL of the SYBR Green I lysis buffer (2X SYBR Green I, 20 mM Tris base pH 7.5, 20 mM EDTA, 0.008% w/v saponin, 0.08% w/v Triton X-100). […] Plates were incubated for 15 min at 37 °C and then read on a TECAN Infinite F-200 spectrophotometer with excitation and emission wavelengths at 485 and 535 nm, respectively."}, "[2]": {"system": "F32-ART5 and F32-TEM parasites", "assay": "Recrudescence assay", "format": "cell-based, Plasmodium falciparum", "conditions": "48 h exposure; 2.5 µM 3i or 18 µM ART; log-rank Mantel-Cox test", "protocol": "Recrudescence assay was performed to evaluate the ability of the F32-ART5 parasites to survive drug exposure comparatively to the F32-TEM parasites. D-sorbitol synchronized ring-stages at 3% parasitemia (2% hematocrit) were exposed to drug for 48 h. After drug exposure, parasite cultures were washed with RPMI-1640 medium and replaced in normal drug-free culture conditions. The time to parasite recrudescence was determined as the time required to reach the 3% initial parasitemia. […] Each experiment was performed for F32-ART5 and F32-TEM and cultivated in parallel in the same conditions to generate paired results. This was carried out at least three times independently. A statistical analysis (log-rank Mantel–Cox test) was carried out on data thanks to a Kaplan–Meier survival analysis (using GraphPad Prism software) considering censored data.\nFigure S48. 13C NMR spectrum of 2i in CDCl3, on a Bruker ARX 101 spectrometer\n2. […]\n3. Studying the effect of (3i) on the liver stage development of P. falciparum Cryopreserved primary human hepatocytes were seeded in 96 well plates with a pre-determined seeding dose that gave a single dense layer of attached hepatocytes. […]\nThe culture medium with or without drugs was refreshed every 48 hours and two independent plates were studied. […] Plates were subjected to quantification using an automated plate scanner. […]"}, "[3]": {"system": "Plasmodium falciparum blood stage parasites", "assay": "Growth assay over three life cycles (delayed death)", "format": "cell-based", "conditions": "0.2 µM; 48, 96, 144 h", "protocol": "To determine the impact of (3i) on apicoplast biogenesis, parasites were treated for 48 h with 0.2 µM of (3i) or 0.2 µM of (2i) (a control of (3i) for which the active CCl3 was replaced by a methyl CH3 group) and compared to untreated parasites by immunofluorescence assay. […] In order to determine if the apicoplast is the main target of (3i), we performed a growth assay over three life cycles to assess a potential delayed death effect, one of the major signature for compounds affecting apicoplast. […] The second interpretation could be that, unlike chloramphenicol or doxycycline, which cause a delayed death phenotype on Plasmodium, (3i) could act like fosmidomycin or actinonin and cause a rapid death phenotype.\nTo observe a potential effect of delayed death of the molecule on the parasite, Plasmodium was maintained on three life cycles (48 h). […] Fluorescence from each well was measured with TECAN infinite M200 plate reader (excitation: 485 nm, emission: 538 nm and integration time: 1000 μs). […] A graph was obtained by performing the ration of the treated culture fluorescence intensity on the untreated culture fluorescence intensity (n = 3)."}}, "data": [{"smiles": "O=[N+]([O-])c1ccc(Oc2nc3ccccc3nc2C(Cl)(Cl)Cl)cc1", "note": "[3i, 2-(4-Nitrophenoxy)-3-trichloromethylquinoxaline]", "values": [{"measurement": "EC50", "setting": "[1]; Plasmodium falciparum, K1, 72 h, K1 strain, 72 h incubation, three independent experiments, read-out: EC50 PfK1 (µM) ± SD", "value": "0.2 ± 0.04", "unit": "µM"}, {"measurement": "SI (selectivity index)", "setting": "[1]; SI = CC50 HepG2/EC50 PfK1", "value": 160.0}, {"measurement": "Recrudescence of F32-ART5 compared with F32-TEM after drug exposure", "setting": "[2]", "value": "faster recrudescence"}, {"measurement": "Parasite growth over three life cycles (ratio treated/untreated)", "setting": "[3]", "value": "drastic reduction in the parasite growth within the first life cycle"}]}]}
